Measured values taken from patent US8269026B2, “Lupane derivatives useful for treating HIV” (priority 2008, dated 2012).

What follows are compounds tested on HIV-1 (HIVIIIB) replication in MT2 cell line (assay: HIV-1 replication in MT2 cell line with and without 30% human serum (viral RT activity in supernatant)). Details: Human immunodeficiency virus 1, MT2 cells, with 30% human serum, average IC50 if tested more than once, read-out: MT2 (HIVIIIB) with HS 30% IC50 range.
Type: cell-based
Procedure: HIV-1 Replication in MT2 cell line with and without 30% human serum: The cells are infected at a Multiciplicity of Infection (MOI) of 0.5 for 3 h and then washed twice with complete media to remove residual virus. Cells are then resuspended at 0.5×10^6/ml in complete medium (RPMI, 10% FBS, 1% sodium pyruvate), and seeded into 96-well plates (6.25×10^4/well). The cells are cultured in the presence or absence of various concentrations of test compounds in serial dilutions for 3 days at 37° C. The test compounds are serially diluted in complete medium supplemented or not with 30% human serum. After 3 days, 100 μL of cultured medium with cells are replaced with 120 μL of freshly diluted test compounds in complete medium containing or not 30% Human serum. The level of HIV-1 replication is determined at days 5 after infection by the presence of viral RT activity in harvested supernatant fluid. The IC50 and IC90 values for the virus replication are determined by using GRAPHPAD PRISM software.
The IC50 of the compounds tested in accordance with the HIV replication activity assay MT2 (HIVIIIB) are represented in Table 1.
With CC(C)C1=C2C3CCC4[C@@]5(C)CC[C@H](OC(=O)[C@H]6CCC[C@@H](C(=O)O)C6)C(C)(C)C5CC[C@@]4(C)[C@]3(C)CC[C@@]2(N)CC1=O (stereo partly drawn) [15-2, 3β-O-(cis-Cyclohexane-3′-carboxylic acid-1′-carboxyl)-17β-amino-21-oxolup-18-ene] the IC50 was over 1000 nM. Cc1nnc(C(=O)N(C)[C@@]23CC[C@]4(C)[C@H](CC[C@@H]5[C@@]6(C)CC[C@H](OC(=O)CC(C)(C)C(=O)O)C(C)(C)[C@@H]6CC[C@]54C)C2=C(C(C)C)C(=O)C3)o1 [19-69, 3β-O-(3′,3′-Dimethylsuccinyl)-17β-[methyl-(5-methyl-[1,3,4]oxadiazole-2-carbonyl)-amino]-21-oxolup-18-ene] gave an IC50 of under 199 nM. For Cc1ccc(C(=O)N[C@@]23CC[C@]4(C)[C@H](CC[C@@H]5[C@@]6(C)CC[C@H](OC(=O)CC(C)(C)C(=O)O)C(C)(C)[C@@H]6CC[C@]54C)C2=C(C(C)C)C(=O)C3)cc1 [19-43, 3β-O-(3′,3′-Dimethylsuccinyl)-17β-(4-methylbenzamido)-21-oxolup-18-ene], the IC50 was under 199 nM. For CC(C)C1=C2C3CCC4[C@@]5(C)CC[C@H](OC(=O)CC(C)(C)C(=O)O)C(C)(C)C5CC[C@@]4(C)[C@]3(C)CC[C@@]2(NC(=O)c2cncnc2)CC1=O (stereo partly drawn) [19-23, 3β-O-(3′,3′-Dimethylsuccinyl)-17β-(pyrimidine-5-amido)-21-oxolup-18-ene], the IC50 was under 199 nM. Compound Cc1ccc(C(=O)N[C@@]23CC[C@]4(C)[C@H](CC[C@@H]5[C@@]6(C)CC[C@H](OC(=O)CC(C)(C)C(=O)O)C(C)(C)[C@@H]6CC[C@]54C)C2=C(C(C)C)C(=O)C3)cn1 [19-48, 3β-O-(3′,3′-Dimethylsuccinyl)-17β-(6-methylpyridin-3-yl)amido-21-oxolup-18-ene] has an IC50 of under 199 nM. CC(C)C1=C2C3CCC4[C@@]5(C)CC[C@H](OC(=O)CC(C)(C)C(=O)O)C(C)(C)C5CC[C@@]4(C)[C@]3(C)CC[C@@]2(NC(=O)OC2CCCCC2)CC1=O (stereo partly drawn) [20-5, 3β-O-(3′,3′-Dimethylsuccinyl)-17β-cyclohexyloxycarbonylamino-21-oxolup-18-ene] gave an IC50 of under 199 nM. In the case of CC(C)C1=C2C3CCC4[C@@]5(C)CC[C@H](OC(=O)CC(C)(C)C(=O)O)C(C)(C)C5CC[C@@]4(C)[C@]3(C)CC[C@@]2(NC(=O)N2CC[C@H](N)C2)CC1=O (stereo partly drawn) [17-43, 3β-O-(3′,3′-Dimethylsuccinyl)-17β-[((S)-3-amino-pyrrolidine-1-carbonyl)-amino]-21-oxolup-18-ene], the IC50 is reported as under 199 nM. CC(C)C1=C2C3CCC4[C@@]5(C)CC[C@H](OC(=O)CC(C)(C)C(=O)O)C(C)(C)C5CC[C@@]4(C)[C@]3(C)CC[C@@]2(NC(=O)c2nccn2C)CC1=O (stereo partly drawn) [19-26, 3β-O-(3′,3′-Dimethylsuccinyl)-17β-(1-methyl-1H-imidazole-2-amido)-21-oxolup-18-ene] gave an IC50 of under 199 nM. For CC(C)C1=C2C3CCC4[C@@]5(C)CC[C@H](OC(=O)CC(C)(C)C(=O)O)C(C)(C)C5CC[C@@]4(C)[C@]3(C)CC[C@@]2(NC(=O)NCc2ncccn2)CC1=O (stereo partly drawn) [17-67, 3β-O-(3′,3′-Dimethylsuccinyl)-17β-[N′-(pyrimidin-2-ylmethyl)ureido]-21-oxolup-18-ene], the IC50 was under 199 nM. In the case of CC(C)C1=C2C3CCC4[C@@]5(C)CC[C@H](OC(=O)CC(C)(C)C(=O)O)C(C)(C)C5CC[C@@]4(C)[C@]3(C)CC[C@@]2(NC(=O)N2CCC(N)CC2)CC1=O (stereo partly drawn) [17-24, 3β-O-(3′,3′-Dimethylsuccinyl)-17β-[(4-amino-piperidine-1-carbonyl)-amino]-21-oxolup-18-ene], the IC50 is reported as 200 to 999 nM. In the case of CC(C)C1=C2[C@H]3CC[C@@H]4[C@@]5(C)CC[C@H](OC(=O)CC(C)(C)C(=O)O)C(C)(C)[C@@H]5CC[C@@]4(C)[C@]3(C)CC[C@@]2(NC(=O)Nc2ccccc2)CC1=O [17-3, 3β-O-(3′,3′-Dimethylsuccinyl)-17β-[N′-(phenyl)ureido]-21-oxolup-18-ene], the IC50 is reported as under 199 nM. In the case of CC(C)C1=C2[C@H]3CC[C@@H]4[C@@]5(C)CC[C@H](OC(=O)CC(C)(C)C(=O)O)C(C)(C)[C@@H]5CC[C@@]4(C)[C@]3(C)CC[C@@]2(NC(=O)c2ccn(C)n2)CC1=O [19-17, 3β-O-(3′,3′-Dimethylsuccinyl)-17β-(1-methyl-1H-pyrazole-3-amido)-21-oxolup-18-ene], the IC50 is reported as under 199 nM. Compound CC(C)C1=C2C3CCC4[C@@]5(C)CC[C@H](OC(=O)CC(C)(C)C(=O)O)C(C)(C)C5CC[C@@]4(C)[C@]3(C)CC[C@@]2(NC(=O)[C@H]2CCCN2C(=O)OC(C)(C)C)CC1=O (stereo partly shown) [19-58] has an IC50 of under 199 nM. CC(=O)N1CCC(NC(=O)N[C@@]23CC[C@]4(C)C(CCC5[C@@]6(C)CC[C@H](OC(=O)CC(C)(C)C(=O)O)C(C)(C)C6CC[C@]54C)C2=C(C(C)C)C(=O)C3)CC1 (stereo partly drawn) [17-11, 3β-O-(3′,3′-Dimethylsuccinyl)-17β-[N′-(1-acetyl-piperidin-4-yl)-ureido]-21-oxolup-18-ene] showed an IC50 of under 199 nM. Cc1nnc(C(=O)N[C@@]23CC[C@]4(C)[C@H](CC[C@@H]5[C@@]6(C)CC[C@H](OC(=O)CC(C)(C)C(=O)O)C(C)(C)[C@@H]6CC[C@]54C)C2=C(C(C)C)C(=O)C3)o1 [19-4, 3β-O-(3′,3′-Dimethylsuccinyl)-17β-(5-methyl-[1,3,4]oxadiazole-2-amido)-21-oxolup-18-ene] was tested, and the IC50 was under 199 nM. For CC(C)C1=C2C3CCC4[C@@]5(C)CC[C@H](OC(=O)CC(C)(C)C(=O)O)C(C)(C)C5CC[C@@]4(C)[C@]3(C)CC[C@@]2(NC(=O)OCC2(N)CC2)CC1=O (stereo partly drawn) [20-12, 3β-O-(3′,3′-Dimethylsuccinyl)-17β-(1-amino-cyclopropylmethoxycarbonylamino)-21-oxolup-18-ene], the IC50 was under 199 nM. CC(C)C1=C2C3CCC4[C@@]5(C)CC[C@H](OC(=O)CC(C)(C)C(=O)O)C(C)(C)C5CC[C@@]4(C)[C@]3(C)CC[C@@]2(NC(=O)OCC2CCCN(C)C2)CC1=O (stereo partly drawn) [20-19, 3β-O-(3′,3′-Dimethylsuccinyl)-17β-(1-methylpiperidine-3-methoxycarbonylamino)-21-oxolup-18-ene] gave an IC50 of under 199 nM. CC(C)C1=C2C3CCC4[C@@]5(C)CC[C@H](OC(=O)CC(C)(C)C(=O)O)C(C)(C)C5CC[C@@]4(C)[C@]3(C)CC[C@@]2(NC(=O)C2CCCCC2)CC1=O (stereo partly drawn) [19-33, 3β-O-(3′,3′-Dimethylsuccinyl)-17β-cyclohexylamido-21-oxolup-18-ene] was tested, and the IC50 was under 199 nM. Work on CC(C)C1=C2C3CCC4[C@@]5(C)CC[C@H](OC(=O)CC(C)(C)C(=O)O)C(C)(C)C5CC[C@@]4(C)[C@]3(C)CC[C@@]2(NC(=O)NC2CCC(F)(F)CC2)CC1=O (stereo partly drawn) [17-57, 3β-O-(3′,3′-Dimethylsuccinyl)-17β-[N′-(4,4-difluorocyclohexyl)ureido]-21-oxolup-18-ene] yielded an IC50 of under 199 nM. Work on CC(C)C1=C2[C@H]3CC[C@@H]4[C@@]5(C)CC[C@H](OC(=O)CC(C)(C)C(=O)O)C(C)(C)[C@@H]5CC[C@@]4(C)[C@]3(C)CC[C@@]2(NC(=O)c2ccccc2F)CC1=O [19-11, 3β-O-(3′,3′-Dimethylsuccinyl)-17β-(2-fluorobenzamido)-21-oxolup-18-ene] yielded an IC50 of under 199 nM. In the case of CC(C)C1=C2C3CCC4[C@@]5(C)CC[C@H](OC(=O)CC(C)(C)C(=O)O)C(C)(C)C5CC[C@@]4(C)[C@]3(C)CC[C@@]2(NC(=O)N[C@@H](C)C(F)(F)F)CC1=O (stereo partly drawn) [17-50, 3β-O-(3′,3′-Dimethylsuccinyl)-17β-[N′-((S)-2,2,2-trifluoro-1-methyl-ethyl)-ureido]-21-oxolup-18-ene], the IC50 is reported as under 199 nM. In the case of Cc1nc(C(=O)N[C@@]23CC[C@]4(C)C(CCC5[C@@]6(C)CC[C@H](OC(=O)CC(C)(C)C(=O)O)C(C)(C)C6CC[C@]54C)C2=C(C(C)C)C(=O)C3)cs1 (stereo partly drawn) [19-72, 3β-O-(3′,3′-Dimethylsuccinyl)-17β-(2-methyl-1,3-thiazole-4-amido)-21-oxolup-18-ene], the IC50 is reported as under 199 nM. CC(C)C1=C2[C@H]3CC[C@@H]4[C@@]5(C)CC[C@H](OC(=O)CC(C)(C)C(=O)O)C(C)(C)[C@@H]5CC[C@@]4(C)[C@]3(C)CC[C@@]2(NC(=O)N2CCOCC2)CC1=O [17-13, 3β-O-(3′,3′-Dimethylsuccinyl)-17β-[(morpholine-4-carbonyl)-amino]-21-oxolup-18-ene] showed an IC50 of under 199 nM. CC(C)C1=C2C3CCC4[C@@]5(C)CC[C@H](OC(=O)CC(C)(C)C(=O)O)C(C)(C)C5CC[C@@]4(C)[C@]3(C)CC[C@@]2(NC(=O)OCCN2CCCC2=O)CC1=O (stereo partly drawn) [20-24, 3β-O-(3′,3′-Dimethylsuccinyl)-17β-(2-(2-oxo-pyrrolidin)-1-ethoxycarbonylamino)-21-oxolup-18-ene] showed an IC50 of under 199 nM. CC(C)C1=C2[C@H]3CC[C@@H]4[C@@]5(C)CC[C@H](OC(=O)CC(C)(C)C(=O)O)C(C)(C)[C@@H]5CC[C@@]4(C)[C@]3(C)CC[C@@]2(NC(=O)Nc2cncnc2)CC1=O [17-44, 3β-O-(3′,3′-Dimethylsuccinyl)-17β-(N′-pyrimidin-5-yl-ureido)-21-oxolup-18-ene] showed an IC50 of under 199 nM. Cc1nc(C(=O)N[C@@]23CC[C@]4(C)C(CCC5[C@@]6(C)CC[C@H](OC(=O)CC(C)(C)C(=O)O)C(C)(C)C6CC[C@]54C)C2=C(C(C)C)C(=O)C3)co1 (stereo partly drawn) [19-76, 3β-O-(3′,3′-Dimethylsuccinyl)-17β-(2-methyl-1,3-oxazole-4-amido)-21-oxolup-18-ene] was tested, and the IC50 was under 199 nM.

Same assay, conditions: Human immunodeficiency virus 1, MT2 cells, without human serum, average IC50 if tested more than once, read-out: MT2 (HIVIIIB) IC50 range
Work on CC(C)C1=C2C3CCC4[C@@]5(C)CC[C@H](OC(=O)CC(C)(C)C(=O)O)C(C)(C)C5CC[C@@]4(C)[C@]3(C)CC[C@@]2(NC(=O)c2cncnc2)CC1=O (stereo partly drawn) [19-23, 3β-O-(3′,3′-Dimethylsuccinyl)-17β-(pyrimidine-5-amido)-21-oxolup-18-ene] yielded an IC50 of under 199 nM. CC(C)C1=C2[C@H]3CC[C@@H]4[C@@]5(C)CC[C@H](OC(=O)CC(C)(C)C(=O)O)C(C)(C)[C@@H]5CC[C@@]4(C)[C@]3(C)CC[C@@]2(NC(=O)Nc2ccccc2)CC1=O [17-3, 3β-O-(3′,3′-Dimethylsuccinyl)-17β-[N′-(phenyl)ureido]-21-oxolup-18-ene] was tested, and the IC50 was under 199 nM. Compound Cc1nnc(C(=O)N[C@@]23CC[C@]4(C)[C@H](CC[C@@H]5[C@@]6(C)CC[C@H](OC(=O)CC(C)(C)C(=O)O)C(C)(C)[C@@H]6CC[C@]54C)C2=C(C(C)C)C(=O)C3)o1 [19-4, 3β-O-(3′,3′-Dimethylsuccinyl)-17β-(5-methyl-[1,3,4]oxadiazole-2-amido)-21-oxolup-18-ene] has an IC50 of under 199 nM. CC(C)C1=C2C3CCC4[C@@]5(C)CC[C@H](OC(=O)CC(C)(C)C(=O)O)C(C)(C)C5CC[C@@]4(C)[C@]3(C)CC[C@@]2(NC(=O)C2CCCCC2)CC1=O (stereo partly drawn) [19-33, 3β-O-(3′,3′-Dimethylsuccinyl)-17β-cyclohexylamido-21-oxolup-18-ene] gave an IC50 of under 199 nM. CC(C)C1=C2[C@H]3CC[C@@H]4[C@@]5(C)CC[C@H](OC(=O)CC(C)(C)C(=O)O)C(C)(C)[C@@H]5CC[C@@]4(C)[C@]3(C)CC[C@@]2(NC(=O)c2ccccc2F)CC1=O [19-11, 3β-O-(3′,3′-Dimethylsuccinyl)-17β-(2-fluorobenzamido)-21-oxolup-18-ene] gave an IC50 of under 199 nM.
